This note sets out measurements from ChEMBL document CHEMBL1138312, “Design and synthesis of indole-based peptoids as potent noncompetitive antagonists of transient receptor potential vanilloid 1” (J Med Chem, 2007).

Test [1] concerns the target Transient receptor potential cation channel subfamily V member 1 (Rattus norvegicus, UniProt O35433). As to the kind of experiment: Blockade of capsaicin-activated rat TRPV1 channel expressed in Xenopus oocytes. The class given is cell-based, Oocyte.
The target in test [2] is Glutamate NMDA receptor; Grin1/Grin2a (Rattus norvegicus, UniProt P35439+Q00959). As to the kind of experiment: Blockade of L-glutamate/glycine-activated rat NR1/NR2A NMDA receptor expressed in Xenopus oocytes. The class given is cell-based, Oocyte.
Chain of Glutamate NMDA receptor; Grin1/Grin2a (Q00959 whole entry, other chains not shown): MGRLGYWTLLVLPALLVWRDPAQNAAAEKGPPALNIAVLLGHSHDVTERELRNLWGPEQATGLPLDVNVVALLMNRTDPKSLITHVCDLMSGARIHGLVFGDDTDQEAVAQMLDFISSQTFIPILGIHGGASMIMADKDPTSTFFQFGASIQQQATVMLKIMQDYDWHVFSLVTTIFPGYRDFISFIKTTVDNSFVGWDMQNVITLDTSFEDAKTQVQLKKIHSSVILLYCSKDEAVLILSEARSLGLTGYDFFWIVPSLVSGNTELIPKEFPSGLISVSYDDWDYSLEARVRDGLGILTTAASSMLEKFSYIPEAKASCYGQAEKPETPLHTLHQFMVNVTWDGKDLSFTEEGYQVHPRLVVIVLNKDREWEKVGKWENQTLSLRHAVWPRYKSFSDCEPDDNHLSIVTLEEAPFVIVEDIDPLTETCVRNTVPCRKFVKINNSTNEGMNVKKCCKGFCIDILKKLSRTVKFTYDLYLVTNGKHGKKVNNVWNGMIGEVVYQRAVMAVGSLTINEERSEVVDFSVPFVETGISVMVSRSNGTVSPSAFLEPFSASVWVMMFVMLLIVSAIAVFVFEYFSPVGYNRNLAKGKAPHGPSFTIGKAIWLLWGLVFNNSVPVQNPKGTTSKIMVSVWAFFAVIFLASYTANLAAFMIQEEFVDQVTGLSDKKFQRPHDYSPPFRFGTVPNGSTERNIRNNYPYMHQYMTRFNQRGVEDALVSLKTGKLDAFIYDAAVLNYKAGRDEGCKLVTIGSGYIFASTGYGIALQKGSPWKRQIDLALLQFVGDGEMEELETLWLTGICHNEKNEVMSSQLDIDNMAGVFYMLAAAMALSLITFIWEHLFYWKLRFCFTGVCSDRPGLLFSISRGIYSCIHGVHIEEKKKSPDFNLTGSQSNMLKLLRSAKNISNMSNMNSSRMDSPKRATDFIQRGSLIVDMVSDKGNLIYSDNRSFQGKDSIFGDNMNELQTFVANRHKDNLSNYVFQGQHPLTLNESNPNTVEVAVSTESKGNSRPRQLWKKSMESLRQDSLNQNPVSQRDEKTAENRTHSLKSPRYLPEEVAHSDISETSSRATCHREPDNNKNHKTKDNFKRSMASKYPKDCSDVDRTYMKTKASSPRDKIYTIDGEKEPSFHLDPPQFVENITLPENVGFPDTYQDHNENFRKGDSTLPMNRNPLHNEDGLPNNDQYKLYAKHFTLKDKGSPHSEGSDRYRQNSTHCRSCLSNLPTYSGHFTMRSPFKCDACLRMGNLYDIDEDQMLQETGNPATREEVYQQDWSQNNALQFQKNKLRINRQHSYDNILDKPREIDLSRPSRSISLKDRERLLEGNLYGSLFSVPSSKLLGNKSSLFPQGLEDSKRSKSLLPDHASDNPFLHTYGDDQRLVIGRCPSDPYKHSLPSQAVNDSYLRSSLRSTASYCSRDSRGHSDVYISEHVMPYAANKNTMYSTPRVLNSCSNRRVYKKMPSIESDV

Chain of Transient receptor potential cation channel subfamily V member 1 (O35433 whole entry): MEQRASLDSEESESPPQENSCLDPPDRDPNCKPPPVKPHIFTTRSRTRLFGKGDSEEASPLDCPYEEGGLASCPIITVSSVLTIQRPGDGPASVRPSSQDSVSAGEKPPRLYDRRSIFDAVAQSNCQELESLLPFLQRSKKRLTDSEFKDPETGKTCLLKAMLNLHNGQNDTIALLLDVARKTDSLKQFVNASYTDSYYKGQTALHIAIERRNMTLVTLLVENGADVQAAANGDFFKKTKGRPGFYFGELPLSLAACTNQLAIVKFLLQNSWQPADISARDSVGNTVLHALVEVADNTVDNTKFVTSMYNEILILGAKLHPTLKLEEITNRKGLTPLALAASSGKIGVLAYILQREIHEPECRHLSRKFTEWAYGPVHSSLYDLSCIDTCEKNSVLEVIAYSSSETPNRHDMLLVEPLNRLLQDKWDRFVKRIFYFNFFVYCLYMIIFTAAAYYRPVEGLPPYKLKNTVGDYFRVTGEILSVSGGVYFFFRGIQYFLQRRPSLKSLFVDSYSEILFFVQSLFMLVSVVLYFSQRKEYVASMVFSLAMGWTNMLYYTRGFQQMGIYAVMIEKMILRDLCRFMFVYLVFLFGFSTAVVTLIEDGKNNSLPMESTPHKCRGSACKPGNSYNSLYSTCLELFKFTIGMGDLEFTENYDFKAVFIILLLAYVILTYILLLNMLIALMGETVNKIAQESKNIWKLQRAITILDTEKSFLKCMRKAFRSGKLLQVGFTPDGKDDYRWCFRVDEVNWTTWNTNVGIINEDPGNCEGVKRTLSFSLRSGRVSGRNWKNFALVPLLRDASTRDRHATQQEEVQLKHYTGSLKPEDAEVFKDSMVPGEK

As to `N=C(N)NCCC[C@H](N)C(=O)N(CCc1c[nH]c2ccccc12)CC(=O)N(CCc1c[nH]c2ccccc12)CC(N)=O`, the IC50 in test [1] is 1.33 µM; in test [2] it was 207 µM.
As for `N=C(N)NCCC[C@H](N)C(=O)N(CCc1ccc(Cl)cc1Cl)CC(=O)N(CCc1c[nH]c2ccccc12)CC(N)=O`, the IC50 in test [1] was found to be 0.18 µM; in test [2], 166 µM.
`N=C(N)NCCC[C@H](N)C(=O)N(CCc1ccc(Cl)cc1Cl)CC(=O)N(CCc1ccc(Cl)cc1Cl)CC(N)=O`: the IC50 in test [1] was 0.7 µM; in test [2], 15 µM.
With `N=C(N)NCCC[C@H](N)C(=O)N(CCc1ccc(Cl)cc1Cl)CC(=O)NCCc1ccc(Cl)cc1Cl`, the IC50 in test [1] was 0.17 µM; in test [2], 0.8 µM.
On to `NCCCCCCN(CCc1ccc(Cl)cc1Cl)CC(=O)N(CCc1ccc(Cl)cc1Cl)CC(N)=O`, for which the IC50 in test [1] was 0.4 µM; in test [2], 3 µM.
The like results for `NC(=O)CN(CCc1ccc(Cl)cc1Cl)C(=O)CN(CCc1c[nH]c2ccccc12)C(=O)[C@@H](N)CCCN=C(N)N` were, in that order, 0.52 µM and 17 µM.
Consider `NC(N)=NCCC[C@H](N)C(=O)N(CCc1c[nH]c2ccccc12)CC(=O)NCCc1c[nH]c2ccccc12`, for which inhibition in test [2] was half-maximal at 18 µM (IC50).
`NC(N)=NCCC[C@H](N)C(=O)N[C@H]1C[C@@H](C(=O)NCCc2ccc(Cl)cc2Cl)N(Cc2ccc(Cl)cc2Cl)C1`: the IC50 is 0.7 µM in test [1] and 8 µM in test [2].

Broadly, the IC50 is the concentration at which inhibition is half-maximal. High values mean a need for much substance, low ones inhibition by little substance.
